Strand notation (5' to 3'): a small letter for the sugar, then the base; units joined by * are phosphorothioate-linked, units joined directly phosphodiester-linked; [ ] holds rarer units or linkages, { } end groups; capitals alone tell only the bases. e = 2'-O-(2-methoxyethyl) (MOE); k = constrained ethyl (cEt); [5mC] = 5-methylcytosine; d = 2'-deoxy (DNA)
Tests used:
human PKK mRNA [1] = assay: Antisense inhibition of human PKK mRNA in HepaRG cells, 1,000 nM, MOE/deoxy/cEt oligonucleotides (Example 3); type: cell-based; settings: HepaRG cells, electroporation with 1,000 nM antisense oligonucleotide, approximately 24 hours, primer probe set RTS3454, relative to untreated control cells; experiment of Table 24
In short: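 Readout is percent PKK mRNA reduction against untreated controls, by real-time PCR (RTS3454) adjusted for total RNA via RIBOGREEN. Oligonucleotides, phosphorothioate gapmers of 16 nucleosides with cEt, MOE and deoxy sugars, were delivered at 1,000 nM by electroporation to 20,000 HepaRG cells/well for roughly 24 h.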

PKK mRNA = PKK mRNA in cynomolgus monkey liver (Example 8); type: in vivo; settings: 40 mg/kg s.c., loading then weekly to week 13; day 87 or 88, 48 h after final dose
Method: Cynomolgus monkeys were treated with ISIS antisense oligonucleotides selected from studies described above. Antisense oligonucleotide efficacy and tolerability were evaluated. The human antisense oligonucleotides tested are cross-reactive with the rhesus genomic sequence (GENBANK Accession No. NW_001118167.1 truncated from nucleotides 2358000 to 2391000 and designated herein as SEQ ID NO: 18).
On day 87 or 88, 48 hours after the final dose, RNA was extracted from liver tissue for real-time PCR analysis of PKK using primer probe set RTS3455 (forward sequence […], designated herein as SEQ ID NO: 23; reverse sequence […], designated herein as SEQ ID NO: 24; probe sequence […], designated herein as SEQ ID NO: 25). The results were normalized to the housekeeping gene, Cyclophilin. Results are presented as percent inhibition of PKK mRNA, relative to PBS control.

human PKK mRNA [2] = assay: Dose-dependent antisense inhibition of human PKK in HepaRG cells, 0.11-3.00 uM (Example 6); type: cell-based; settings: electroporation, approx. 16 hours, relative to untreated control cells
In short: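 Antisense oligonucleotides were tested over 0.11–3.00 μM, delivered by electroporation, with readout after roughly 16 h. Human PKK transcript was measured by real-time PCR (set RTS3454) and adjusted to RIBOGREEN total RNA, giving half-maximal inhibitory concentrations.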

human PKK mRNA [3] = assay: Human PKK mRNA in liver of human KLKB1 transgenic mice (Example 7); type: in vivo; settings: twice a week for 3 weeks
Method: (§1) Transgenic mice containing a 37,390 base pair fragment of the human KLKB1 gene sequence (chromosome 4: position 187148672-187179625, accession no: NC_000004.11) were treated with ISIS antisense oligonucleotides selected from studies described above, which were evaluated for efficacy in this model.
(§2) Groups of transgenic mice were injected subcutaneously twice a week for 3 weeks with 2.5 mg/kg/week, 5.0 mg/kg/week, 10 mg/kg/week or 20 mg/kg/week of ISIS 546232, ISIS 546251, ISIS 546254, ISIS 546343, ISIS 546828, ISIS 547455, ISIS 547457, ISIS 547927, and ISIS 548048. One group of transgenic mice was injected subcutaneously twice a week for 3 weeks with PBS. Mice were euthanized 48 hours after the last dose, and organs and plasma were harvested for further analysis.
To evaluate the effect of ISIS oligonucleotides on target reduction, RNA was extracted from liver tissue for real-time PCR analysis of human PKK. Results are presented as percent inhibition of PKK mRNA, relative to PBS control.

PKK protein [4] = assay: Plasma PKK protein levels in human KLKB1 transgenic mice (Example 7); type: in vivo; settings: plasma, twice a week for 3 weeks
Method: as §1, §2
Plasma PKK protein levels were evaluated in all groups. Results are presented as percent inhibition of PKK protein, relative to PBS control.

[5] = cynomolgus monkey, in vivo, sc, 40 mg/kg
Method: (§3) Prior to the study, the monkeys were kept in quarantine for a 30-day period, during which the animals were observed daily for general health. The monkeys were 2-4 years old and weighed between 2 and 4 kg. Ten groups of four randomly assigned male cynomolgus monkeys each were injected subcutaneously with ISIS oligonucleotide or PBS. PBS solution or ISIS oligonucleotides at a dose of 40 mg/kg were administered initially with a loading regimen consisting of four doses on the first week of the study (days 1, 3, 5, and 7), followed by a maintenance regimen consisting of once weekly administration starting on Day 14 (weeks 2 to 13). Subcutaneous injections were performed in clock-wise rotations at 4 sites on the back; one site per dose. The injection sites were delineated by tattoo, while sedated using ketamine, and were separated by a minimum of 3 cm.
To evaluate any effect of ISIS oligonucleotides in cynomolgus monkeys on hematologic parameters, blood samples of approximately 1.2 mL of blood was collected pre-dose and on day 87 or day 88 from each of the available study animals in tubes containing K2-EDTA. Samples were analyzed for red blood cell (RBC) count, white blood cells (WBC) count, platelet count, hemoglobin content and hematocrit, using an ADVIA2120i hematology analyzer (SIEMENS, USA).

[6] = cynomolgus monkey, in vivo, sc, 40 mg/kg; remark: listed apart in the source
Method: as §3
To evaluate the effect of ISIS oligonucleotides on hepatic function, the monkeys were fasted overnight. Approximately, 1.5 mL of blood samples were collected from all the study groups. Blood was collected in tubes without anticoagulant for serum separation. The tubes were kept at room temperature for a minimum of 90 min and then centrifuged at 3,000 rpm for 10 min. Levels of various liver function markers were measured using a Toshiba 120FR NEO chemistry analyzer (Toshiba Co., Japan).

[7] = cynomolgus monkey, in vivo, sc, 40 mg/kg; remark: listed apart in the source
Method: as §3
To evaluate any inflammatory effect of ISIS oligonucleotides in cynomolgus monkeys, the monkeys were fasted overnight. Approximately, 1.5 mL of blood samples were collected from all the study groups. Blood was collected in tubes without anticoagulant for serum separation. The tubes were kept at room temperature for a minimum of 90 min and then centrifuged at 3,000 rpm for 10 min. C-reactive protein (CRP), which is synthesized in the liver and which serves as a marker of inflammation, was measured using a Toshiba 120FR NEO chemistry analyzer (Toshiba Co., Japan). Complement C3 was also measured similarly, and the data is presented as a percentage of baseline values.

[8] = cynomolgus monkey, in vivo, sc, 40 mg/kg; remark: listed apart in the source
Method: as §3
To evaluate the effect of ISIS oligonucleotides on kidney function, the monkeys were fasted overnight. Approximately, 1.5 mL of blood samples were collected from all the study groups. Blood was collected in tubes without anticoagulant for serum separation. The tubes were kept at room temperature for a minimum of 90 min and then centrifuged at 3,000 rpm for 10 min. Levels of BUN and creatinine were measured using a Toshiba 120FR NEO chemistry analyzer (Toshiba Co., Japan).

PKK protein [9] = assay: PKK protein in cynomolgus monkey plasma by ELISA (Example 8); type: in vivo; settings: 40 mg/kg sc
Method: Approximately 0.9 mL of blood was collected each time from all available animals at pre-dose, day 17, day 31, day 45, day 59, and day 73, and placed in tubes containing 3.2% sodium citrate. The tubes were centrifuged (3000 rpm for 10 min at room temperature) to obtain plasma. PKK protein levels were measured in the plasma by ELISA. The results are presented in Table 52, expressed as percentage inhibition compared to the PBS control levels.

[10] = cynomolgus monkey, in vivo, sc, 40 mg/kg; remark: listed apart in the source
Method: as §3
Kidney function was also assessed by urinalysis. Fresh urine from all animals was collected using a clean cage pan on wet ice. Food was removed overnight the day before fresh urine collection was done but water was supplied. The total protein and creatinine levels were measured using a Toshiba 120FR NEO automated chemistry analyzer (Toshiba Co., Japan) and the protein to creatinine ratio was calculated.

Substance	HCT [5] [%]	Hemoglobin [5] [g/dL]	Platelets [5] [µL⁻¹]	RBC [5] [µL⁻¹]	WBC [5] [µL⁻¹]	ALT [6] [IU/L]	AST [6] [IU/L]	Albumin [6] [g/dL]	C3 (% of baseline) [7]	CRP [7] [mg/dL]	Plasma BUN [8] [mg/dL]	Plasma Creatinine [8] [mg/dL]	PKK protein level reduction (%) in plasma relative to control levels (PKK protein [9]; Day 17) [%]	PKK protein level reduction (%) in plasma relative to control levels (PKK protein [9]; Day 31) [%]	PKK protein level reduction (%) in plasma relative to control levels (PKK protein [9]; Day 45) [%]	PKK protein level reduction (%) in plasma relative to control levels (PKK protein [9]; Day 59) [%]	PKK protein level reduction (%) in plasma relative to control levels (PKK protein [9]; Day 73) [%]	Urine protein/creatinine ratio [10]	also measured
548048 (e[5mC]*eG*kA*dT*dA*dT*d[5mC]*dA*dT*dG*dA*dT*dT*k[5mC]*k[5mC]*e[5mC]) [compound 548048]	–	–	–	–	–	–	–	–	–	–	–	–	–	–	–	–	–	–	% inhibition (human PKK mRNA [1]): 84%; % inhibition of PKK mRNA in the cynomolgus monkey liver relative to the PBS control (PKK mRNA): 95%; percent inhibition of PKK mRNA, 0.11 μM (human PKK mRNA [2]; 0.11 μM): 49%; percent inhibition of PKK mRNA, 0.33 μM (human PKK mRNA [2]; 0.33 μM): 66%; percent inhibition of PKK mRNA, 1.00 μM (human PKK mRNA [2]; 1.00 μM): 86%; percent inhibition of PKK mRNA, 3.00 μM (human PKK mRNA [2]; 3.00 μM): 92%; % inhibition of PKK mRNA in the transgenic mice liver relative to the PBS control (human PKK mRNA [3]; 2.5 mg/kg/week sc): 7%; % inhibition of PKK mRNA in the transgenic mice liver relative to the PBS control (human PKK mRNA [3]; 5 mg/kg/week sc): 77%; % inhibition of PKK mRNA in the transgenic mice liver relative to the PBS control (human PKK mRNA [3]; 10 mg/kg/week sc): 72%; % inhibition of PKK mRNA in the transgenic mice liver relative to the PBS control (human PKK mRNA [3]; 20 mg/kg/week sc): 80%; % inhibition of PKK protein levels in the transgenic mice relative to the PBS control (PKK protein [4]; 2.5 mg/kg/week sc): 23%; % inhibition of PKK protein levels in the transgenic mice relative to the PBS control (PKK protein [4]; 5 mg/kg/week sc): 70%; % inhibition of PKK protein levels in the transgenic mice relative to the PBS control (PKK protein [4]; 10 mg/kg/week sc): 89%; % inhibition of PKK protein levels in the transgenic mice relative to the PBS control (PKK protein [4]; 20 mg/kg/week sc): 98%
ISIS 546232: antisense oligonucleotide targeting human PKK; sequence in a table not shown (antisense AGGAACTTGGTGTGCCACTT; 5-10-5 MOE gapmer, further chemistry not given here)	42	12.9	391000	5.4e+06	11000	140	63	4.1	50 % of baseline	0.5	22.7	1.0	53	58	72	75	70	0.03	–
ISIS 546251: antisense oligonucleotide targeting nucleobases 27427-27466 of SEQ ID NO: 10; sequence in a table not shown (antisense GGCAAACATTCACTCCTTTA; 5-10-5 MOE gapmer, further chemistry not given here)	43	12.9	419000	5.7e+06	8000	58	51	3.7	62 % of baseline	0.7	25.4	1.1	71	75	75	81	77	0.12	–
ISIS 546828: gapmer targeting human PKK, selected from earlier screens; sequence in a table not shown (ACAGTATCACTGTACTAGTT; gapmer, wing chemistry not given here)	43	12.9	408000	6e+06	11000	67	75	3.7	56 % of baseline	0.6	24.7	0.9	0	8	23	39	39	0.03	–
ISIS 547455: antisense oligonucleotide targeting nucleobases 30570-30610 of SEQ ID NO: 10; sequence in a table not shown (ATATCATGATTCCCTTCTGA; 5-10-5 MOE gapmer, further chemistry not given here)	34	10.2	448000	4.5e+06	13000	61	56	3.8	64 % of baseline	1.9	29.4	0.9	26	33	43	58	58	0.70	–
ISIS 547457: antisense oligonucleotide targeting nucleobases 30570-30610 of SEQ ID NO: 10; sequence in a table not shown (AAGGCGATATCATGATTCCC; 5-10-5 MOE gapmer, further chemistry not given here)	45	13.8	367000	6.4e+06	10000	52	54	4.0	53 % of baseline	0.3	24.3	1.0	68	75	79	76	80	0.03	–

— US11840686B2, “Modulation of prekallikrein (PKK) expression” (Ionis Pharmaceuticals, Inc., priority 2013, dated 2023)
